Measured values published in article PMC4602143, “A combined bioinformatics and functional metagenomics approach to discovering lipolytic biocatalysts” (Frontiers in Microbiology, 2015).
Where two headings read alike, the source gives them in different places.

Tested on: T1, PL-GOS
T1 construct: synthetic gene; N-terminal His6 with TEV site, tag cut by TEV protease; E. coli BL21(DE3) strain TMBL1503, pET-11a
Assay: pNP release, OD405, Lineweaver-Burk
Type: biochemical, metagenome: ocean surface water (Global Ocean Sampling)
Settings: 50 mM Tris-HCl pH 7.3, 20°C, 65 nM enzyme
Description: pNP release, OD405, Lineweaver-Burk on PL-GOS

Row | Km (read-out: pNP-butyrate) | Km (substrate above 20 μM (non-Michaelis-Menten below), read-out: pNP-palmitate) | Structure (SMILES)
1 | 66.7 µM |  | CCCC(=O)Oc1ccc([N+](=O)[O-])cc1 [pNP-butyrate]
2 |  | 68.1 µM | CCCCCCCCCCCCCCCC(=O)Oc1ccc([N+](=O)[O-])cc1 [pNP-palmitate]
